From ChEMBL document CHEMBL1781910, “Design, synthesis, and characterization of piperazinedione-based dual protein inhibitors for both farnesyltransferase and geranylgeranyltransferase-I” (Eur J Med Chem, 2011)
The source made the active and inactive calls. No cut-off for these calls is given here.

Key:
[1] = Inhibition of rat FTase using farnesylpyrophosphate and dansyl-GCVLS as substrate preincubated for 5 mins measured after 15 mins by fluorescence assay
[2] = Inhibition of rat GGTase-1 using geranylgeranyl-pyrophosphate and dansyl-GCVLL as substrate preincubated for 5 mins measured after 15 mins by fluorescence assay
Rattus norvegicus [3] = species on record: Rattus norvegicus; experiment: Bisubstrate inhibition of rat FTase at 20 to 40 nM using farnesylpyrophosphate and dansyl-GCVLS as substrate by double-reciprocal plot analysis
Rattus norvegicus [4] = species on record: Rattus norvegicus; experiment: Bisubstrate inhibition of rat GGTase-1 at 20 to 40 nM using geranylgeranyl-pyrophosphate and dansyl-GCVLL as substrate by double-reciprocal plot analysis

Row | Structure (SMILES) | IC50 [1] | IC50 [2] | inhibition (Rattus norvegicus [3]) | inhibition (Rattus norvegicus [4])
1 | CC(C)[C@@H]1C(=O)NCC(=O)N1Cc1ccco1 | 346 nM | 1920 nM |  | 
2 | O=C1NCC(=O)N(Cc2ccc(Oc3ccc(Cl)c(Cl)c3)cc2)[C@@H]1Cc1c[nH]c2ccccc12 | 13.1 nM | 21 nM | Active | Active
3 | O=C1NCC(=O)N(Cc2ccc(Oc3cccc(Cl)c3)cc2)[C@@H]1Cc1c[nH]c2ccccc12 | 17.8 nM | 32.3 nM |  | 
4 | CC(C)C[C@@H]1C(=O)NCC(=O)N1Cc1ccco1 | 421 nM | 1660 nM |  | 
5 | COc1c(Cl)cc(Cl)cc1CN1C(=O)CNC(=O)[C@H]1Cc1c[nH]c2ccccc12 | 22.1 nM | 78.2 nM |  | 
6 | O=C1NCC(=O)N(Cc2ccco2)[C@@H]1Cc1ccccc1 | 177 nM | 620 nM |  | 
7 | COc1ccc(CN2C(=O)CNC(=O)[C@H]2CCSC)cc1 | 109 nM | 320 nM |  | 
8 | O=C1NCC(=O)N(Cc2ccc(N3CCOCC3)cc2)[C@H]1Cc1c[nH]c2ccccc12 | 225 nM | 123 nM |  | 
9 | COc1ccc(CN2C(=O)CNC(=O)[C@@H]2CCSC)cc1 | 190 nM | 700 nM |  | 
10 | COc1c(Cl)cc(Cl)cc1CN1C(=O)CNC(=O)[C@@H]1Cc1c[nH]c2ccccc12 | 34 nM | 219 nM |  | 
11 | O=C1NCC(=O)N(Cc2ccc(Cl)cc2)[C@H]1Cc1c[nH]c2ccccc12 | 42 nM | 520 nM |  | 
12 | N#Cc1ccc(CN2C(=O)CNC(=O)[C@H]2Cc2c[nH]c3ccccc23)cc1 | 38.7 nM | 130 nM |  | 
13 | COc1ccc(CN2C(=O)CNC(=O)[C@H]2Cc2c[nH]cn2)cc1 | 78.5 nM | 180 nM |  | 
14 | N#Cc1ccc(CN2C(=O)CNC(=O)[C@@H]2Cc2c[nH]c3ccccc23)cc1 | 43.2 nM | 320 nM |  | 
15 | COc1ccc(C[C@@H]2C(=O)NCC(=O)N2Cc2ccco2)cc1 | 118 nM | 410 nM |  | 
16 | O=C1NCC(=O)N(Cc2ccco2)[C@H]1Cc1c[nH]cn1 | 97.2 nM | 980 nM |  | 
17 | O=C1NCC(=O)N(Cc2ccco2)[C@@H]1Cc1c[nH]c2ccccc12 | 52.4 nM | 220 nM |  | 
18 | COc1ccc(CN2C(=O)CNC(=O)[C@@H]2CC(C)C)cc1 | 582 nM | 3920 nM |  | 
19 | CSCC[C@H]1C(=O)NCC(=O)N1Cc1ccco1 | 189 nM | 1890 nM |  | 
20 | O=C1NCC(=O)N(Cc2ccc(Br)cc2)[C@H]1Cc1c[nH]c2ccccc12 | 41.7 nM | 630 nM |  | 
21 | O=C1NCC(=O)N(Cc2ccc(N3CCOCC3)cc2)[C@@H]1Cc1c[nH]c2ccccc12 | 132 nM | 88.1 nM |  | 
22 | C[C@@H]1C(=O)NCC(=O)N1Cc1ccco1 | 971 nM | 3830 nM |  | 
23 | CC(C)C[C@H]1C(=O)NCC(=O)N1Cc1ccco1 | 476 nM | 3880 nM |  | 
24 | COc1ccc(CN2C(=O)CNC(=O)[C@@H]2C(C)C)cc1 | 774 nM | 3820 nM |  | 
25 | COc1ccc(CN2C(=O)CNC(=O)[C@@H]2Cc2c[nH]c3ccccc23)cc1 | 58.8 nM | 520 nM |  | 
26 | O=C1NCC(=O)N(Cc2ccc(F)cc2)[C@H]1Cc1c[nH]c2ccccc12 | 78.2 nM | 770 nM |  | 

Row | Structure (SMILES) | IC50 [1] | IC50 [2] | inhibition (Rattus norvegicus [3]) | inhibition (Rattus norvegicus [4])
27 | O=C1NCC(=O)N(Cc2ccc(Br)cc2)[C@@H]1Cc1c[nH]c2ccccc12 | 29.8 nM | 120 nM |  | 
28 | COc1ccc(CN2C(=O)CNC(=O)[C@@H]2Cc2ccccc2)cc1 | 183 nM | 1960 nM |  | 
29 | COc1ccc(CN2C(=O)CNC(=O)[C@@H]2C)cc1 | 1100 nM | 5210 nM |  | 
30 | COc1ccc(CN2C(=O)CNC(=O)[C@H]2Cc2ccccc2)cc1 | 142 nM | 460 nM |  | 
31 | O=C1NCC(=O)N(Cc2ccco2)[C@@H]1Cc1c[nH]cn1 | 70.6 nM | 350 nM |  | 
32 | COc1ccc(CN2C(=O)CNC(=O)[C@H]2Cc2c[nH]c3ccccc23)cc1 | 39.8 nM | 150 nM |  | 
33 | COc1ccc(CN2C(=O)CNC(=O)[C@H]2CC(C)C)cc1 | 346 nM | 1200 nM |  | 
34 | COc1ccc(CN2C(=O)CNC(=O)[C@@H]2Cc2c[nH]cn2)cc1 | 107 nM | 590 nM |  | 
35 | COc1ccc(CN2C(=O)CNC(=O)[C@H]2C)cc1 | 621 nM | 2830 nM |  | 
36 | O=C1NCC(=O)N(Cc2ccc(F)cc2)[C@@H]1Cc1c[nH]c2ccccc12 | 44.7 nM | 480 nM |  | 
37 | O=C1NCC(=O)N(Cc2ccc(Oc3cccc(Cl)c3)cc2)[C@H]1Cc1c[nH]c2ccccc12 | 26.5 nM | 96.5 nM |  | 
38 | O=C1NCC(=O)N(Cc2ccco2)[C@H]1Cc1c[nH]c2ccccc12 | 72.1 nM | 790 nM |  | 
39 | O=C1NCC(=O)N(Cc2ccco2)[C@H]1CSCc1ccccc1 | 68.9 nM | 270 nM |  | 
40 | COc1ccc(CN2C(=O)CNC(=O)[C@H]2C(C)C)cc1 | 479 nM | 1700 nM |  | 
41 | COc1ccc(CN2C(=O)CNC(=O)[C@H]2CSCc2ccccc2)cc1 | 70.7 nM | 470 nM |  | 
42 | COc1ccc(C[C@H]2C(=O)NCC(=O)N2Cc2ccc(OC)cc2)cc1 | 188 nM | 880 nM |  | 
43 | O=C1NCC(=O)N(Cc2ccc(Oc3ccc(Cl)c(Cl)c3)cc2)[C@H]1Cc1c[nH]c2ccccc12 | 22.3 nM | 92.3 nM |  | 
44 | O=C1NCC(=O)N(Cc2ccco2)[C@@H]1CSCc1ccccc1 | 99.1 nM | 760 nM |  | 
45 | C[C@H]1C(=O)NCC(=O)N1Cc1ccco1 | 1560 nM | 5220 nM |  | 
46 | O=C1NCC(=O)N(Cc2ccc(Cl)cc2)[C@@H]1Cc1c[nH]c2ccccc12 | 33.1 nM | 170 nM |  | 
47 | CC(C)[C@H]1C(=O)NCC(=O)N1Cc1ccco1 | 541 nM | 3200 nM |  | 
48 | COc1ccc(CN2C(=O)CNC(=O)[C@@H]2CSCc2ccccc2)cc1 | 45.1 nM | 160 nM |  | 
49 | O=C1NCC(=O)N(Cc2ccco2)[C@H]1Cc1ccccc1 | 160 nM | 1820 nM |  | 
50 | COc1ccc(C[C@@H]2C(=O)NCC(=O)N2Cc2ccc(OC)cc2)cc1 | 129 nM | 380 nM |  | 
51 | CSCC[C@@H]1C(=O)NCC(=O)N1Cc1ccco1 | 121 nM | 730 nM |  | 
52 | COc1ccc(C[C@H]2C(=O)NCC(=O)N2Cc2ccco2)cc1 | 234 nM | 1050 nM |  | 
